Assay: RP, Agilent ZORBAX Eclipse Plus C18, 50 × 4.6 mm, 1.8 µm, 0.5 mL/min, estimated dead time 1.1 min; A: water + 0.1% formic acid; B: acetonitrile + 0.1% formic acid; gradient (min/%B) 0/10 3/10 25/100 28/100
Conditions: stereoisomer not certain

SMILES | LC retention time [min]
CC(C)(C)NCC(O)c1ccc(O)c(CO)c1 (configuration not stated) | 1.63
C=C(C)C1CCC(C)=CC1c1c(O)cc(CCCCC)cc1O (configuration not stated) | 21.2
CCNC(C)Cc1ccc2c(c1)OCO2 (configuration not stated) | 6.16
COC(=O)Nc1nc2ccc(Sc3ccccc3)cc2[nH]1 | 12.6
CC(=O)CC(c1ccccc1)c1c(O)c2ccccc2oc1=O (configuration not stated) | 14.9
CNC(=O)Oc1ccccc1C(C)C | 13.6
CCn1cc(C(=O)O)c(=O)c2cnc(N3CCNCC3)nc21 | 4.78
COC(=O)C=C(C)OP(=O)(OC)OC | 9.1
CC12CCC3c4ccc(O)cc4CCC3C1CCC2O (configuration not stated) | 13.4
CC(=O)OC1C=CC2C3Cc4ccc(O)c5c4C2(CCN3C)C1O5 (configuration not stated) | 4.94
COC(=O)C(C)N(C(=O)Cc1ccccc1)c1c(C)cccc1C (configuration not stated) | 18.1
CCCN(CCC)C(=O)SCc1ccccc1 | 20.4
CCNc1nc(NCC)nc(SC)n1 | 8.74
CC(N)Cc1ccccc1 (configuration not stated) | 3.82
CNC(=O)Oc1cccc2c1OC(C)(C)C2O (configuration not stated) | 7.87
Cc1ccnc(NS(=O)(=O)c2ccc(N)cc2)n1 | 5.73
CNC(=O)N(C)c1nc2ccccc2s1 | 12.1
NC(=O)Cc1cccc2ccccc12 | 10
Oc1ccccc1-c1ccccc1 | 16.3
CCC(C)c1ccccc1OC(=O)NC (configuration not stated) | 15
COP(=S)(OC)Oc1ccc([N+](=O)[O-])cc1 | 16.3
CCCCC1C(=O)N(c2ccccc2)N(c2ccccc2)C1=O | 17.2
CNC(=O)ON=CC(C)(C)S(C)=O (configuration not stated) | 2.7
COC(=O)c1ccccc1S(=O)(=O)NC(=O)Nc1nc(C)cc(C)n1 | 12.2

SMILES | LC retention time [min]
CCCCN(CC)C(=O)SCCC | 19.6
Cc1ccc(C(C)(C)C)c(O)c1C(=O)O | 14.2
CC(C)N1C(=O)N(c2ccccc2)CSC1=NC(C)(C)C | 18.3
CN=C(NC#N)NCCSCc1nc[nH]c1C | 1.83
COP(N)(=S)Oc1ccccc1C(=O)OC(C)C (configuration not stated) | 14.9
CCCCCc1cc(O)c2c(c1)OC(C)(C)C1CCC(C(=O)O)=CC21 (configuration not stated) | 19.1
CCNc1nc(NC(C)(C)C)nc(OC)n1 | 9.32
CC(C)NCC(O)COc1cccc2ccccc12 (configuration not stated) | 9.19
CCC1OC(=O)CC(O)C(C)C(OC2OC(C)C(OC3CC(C)(O)C(O)C(C)O3)C(N(C)C)C2O)C(CC=O)CC(C)C(=O)C=CC(C)=CC1COC1OC(C)C(O)C(OC)C1OC (configuration not stated) | 10.1
CNC(=C[N+](=O)[O-])NCCSCc1ccc(CN(C)C)o1 | 2.03
CCCN(CC)CC1COC2(CCC(C(C)(C)C)CC2)O1 (configuration not stated) | 12.5
Cc1nnc(NS(=O)(=O)c2ccc(N)cc2)s1 | 7.12
CC(Cc1ccc(C(C)(C)C)cc1)CN1CC(C)OC(C)C1 (configuration not stated) | 12.4
CN1CCC23c4c5ccc(O)c4OC2C(O)C=CC3C1C5 (configuration not stated) | 1.47
CN(C)C1C(=O)C(C(N)=O)=C(O)C2(O)C(=O)C3=C(O)c4c(O)cccc4C(C)(O)C3CC12 (configuration not stated) | 6.62
CS(=O)(=O)Nc1nc2cc(-c3ccc([N+](=O)[O-])cc3)c([N+](=O)[O-])cc2[nH]c1=O | 11.5
CN(C)c1nc(=O)n(C2CCCCC2)c(=O)n1C | 10.1
CCCCCc1cc(O)c2c(c1)OC(C)(C)C1CCC(C)=CC21 (configuration not stated) | 23.6
Cc1ncc([N+](=O)[O-])n1CCO | 2.77
CCOc1ccc(NC(=O)OC(C)C)cc1OCC | 15.3
CCOP(=S)(OCC)Oc1ccc(S(C)=O)cc1 (configuration not stated) | 13.5
Cc1cccc(C)c1N | 5.94
CCOC(=O)CC(SP(=O)(OC)OC)C(=O)OCC (configuration not stated) | 11.8
